Tests used:
[1] = tested on: BCC and squamous carcinoma (SCC); settings: cited from earlier work
Gli1 = settings: cultured keratinocytes; cited from earlier work
[2] = tested on: transit amplifying cell clones and stem cell clones in tail skin epidermis; experiment: Topical treatment of tail skin of induced Ahcre^ERT R26^EYFP/wt mice, clonal fate by wholemount confocal imaging; assay type: in vivo, mouse; settings: applied topically to tail skin, compared with vehicle only control
Description: The generation of Ahcre^ERT and R26^EYFP/EYFP mice has been described previously (Kemp et al (2004) Nucleic Acids Res 32, e92; Srinivas et al (2001) BMC Dev Biol 1, 4). To induce ere expression AhcreERT R26^EYFP/wt heterozygote animals were given a single intraperitoneal injection of 80 mg/kg β-napthoflavone (SIGMA) and 1 mg tamoxifen free base (MP Biomedicals) dissolved in corn oil. To prepare epidermal wholemounts, mice were killed, and then tail skin was cut into 0.5 cm sections and incubated in 5 mM EDTA/PBS for 4 h at 37 C. Epidermis was then peeled of the dermis and fixed in 4% paraformaldehyde for 1 h at room temperature. Fixed epidermal sheets were stored in PBS at 4C.
Epidermal sheets were blocked and permeabilized by incubation in PB buffer containing 0.5% BSA 0.25% Fish skin gelatin, 0.5% Triton X-100 and Goat/Donkey/Rat serum as appropriate in PBS for 1 h. Primary antibodies were diluted in PB buffer and epidermal sections incubated overnight at room temperature on rocking platform then washed 4×1 h in PBS/0.2% Tween 20. Secondary antibodies were diluted 1:250 in PB buffer, sections incubated overnight, then washed 4×1 h. Samples were rinsed in distilled water and mounted. […]

BCC = settings: topical, irradiated patched heterozygote mice; cited from earlier work

CC1=C(/C=C/C(C)=C/C=C/C(C)=C/CO)C(C)(C)CCC1 [retinol]
benefit in chemoprevention of BCC and squamous carcinoma (SCC) ([1]; clinical studies): no benefit

COc1cc(C)c(/C=C/C(C)=C/C=C/C(C)=C/C(=O)O)c(C)c1C [acitretin]
effect on SCC and BCC development ([1]; oral, renal transplant patients): may inhibit SCC and BCC development

CC1=C(/C=C/C(C)=C/C=C/C(C)=C/C(=O)O)C(C)(C)CCC1 [ATRA, all trans retinoic acid]
effect on Gli1 (Gli1): inhibition of Gli1
effect on stem cell clones [2]: expansion of stem cell clones
effect on transit amplifying cell clones [2]: rapid depletion of transit amplifying cell clones

CC1=C(/C=C/C(C)=C/C=C/C(C)=C\C(=O)O)C(C)(C)CCC1 [isotretinoin]
benefit in chemoprevention of BCC and squamous carcinoma (SCC) ([1]; clinical studies): no benefit

CCOC(=O)c1ccc(C#Cc2ccc3c(c2)C(C)(C)CCS3)nc1 [tazarotene]
number of BCC induced by UV or ionizing radiation (BCC): substantial decrease in the number of BCC
effect on BCC ([1]; topical treatment, clinical studies): regression of BCC

— patent publication US20090307784A1, “Methods of Analysing Cell Behaviour” (Medical Research Council, priority 2005, published 2009)
